From ChEMBL document CHEMBL1201862, “PubChem BioAssay data set” (2004)
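The compound was tested at five concentrations on cells cultured in 96-well plates, with a 48-hour exposure period. GI50: concentration for 50% inhibition of growth.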 Activity calls are given as the source filed them. No stated cut-off is given here; in the data, active = GI50 up to about 1.1 µM and inactive = higher.

Key:
Assay in all cases: NCI tumour cell line growth inhibition, 48 h
DLD-1 = test system: DLD-1
DMS-273 = test system: DMS-273
HOP-18 = test system: HOP-18
LXFL 529 = test system: LXFL 529
SNB-78 = test system: SNB-78
XF498 = test system: XF498
BT-549 = test system: BT-549
Hs-578T = test system: Hs-578T

Row | SMILES | GI50 (BT-549) | GI50 (Hs-578T) | further results
1 | O=C(O)CCc1cccc2c1oc1c(CCC(=O)O)cccc12 | – | – | GI50 (DLD-1): > 100 µM (inactive); GI50 (DMS-273): > 100 µM (inactive); GI50 (HOP-18): > 100 µM (inactive); GI50 (LXFL 529): > 100 µM (inactive); GI50 (SNB-78): 48.1 µM (inactive); GI50 (XF498): > 100 µM (inactive)
2 | CCN(CC)CCCNc1n[n+]([O-])c2ccccc2[n+]1[O-] | 17.3 µM (inactive) | – | –
3 | CC1CN=C(N(C)C(=O)Nc2ccc(Cl)cc2)S1 (configuration not stated) | – | 25.5 µM (inactive) | –
4 | COc1c2occc2c(N)c2ccc(=O)oc12 | > 100 µM (inactive) | > 100 µM (inactive) | –
5 | Cc1cc(S(=O)(=O)Nc2nc3ccccc3nc2-c2cccc([N+](=O)[O-])c2)c(S)cc1Cl | 38.7 µM (inactive) | 23.6 µM (inactive) | –
6 | CC1CC2=C(C1)C(C1(C)C(=O)CC3C(C1=O)C3(C)C)C(C)C2=O (configuration not stated) | > 100 µM (inactive) | > 100 µM (inactive) | –
7 | COc1cc(OC)c(/C=N/N=C(\N)NO)c(OC)c1 | – | > 100 µM (inactive) | –
8 | CCCCc1c2c(nc3c1CCCC3=O)CCCC2 | – | – | GI50 (DMS-273): > 100 µM (inactive); GI50 (LXFL 529): > 100 µM (inactive); GI50 (XF498): > 100 µM (inactive)
9 | CC(=O)c1ccc(NC(=O)C(=O)C(C#N)CC(C)(C)C=O)cc1 (configuration not stated) | – | – | GI50 (LXFL 529): > 100 µM (inactive); GI50 (SNB-78): > 100 µM (inactive); GI50 (XF498): > 100 µM (inactive)
10 | COc1ccc(N[S+]([O-])C2CCCCC2)cc1 (configuration not stated) | – | > 100 µM (inactive) | –
11 | COc1ccc2nc3cccc([N+](=O)[O-])c3c(NCCO)c2c1 | 0.00565 µM (active) | 0.0169 µM (active) | –
12 | C#CCCCCC#CC1CCCC1C1=CC(=O)c2ccccc21 (configuration not stated) | – | – | GI50 (DLD-1): 8.71 µM (inactive); GI50 (DMS-273): 3.49 µM (inactive); GI50 (HOP-18): 12.5 µM (inactive); GI50 (XF498): 8.36 µM (inactive)
13 | O=C(CCCN1CCC2(CC1)OC(=O)N(c1ccccc1)C2=O)c1ccccc1 | – | > 100 µM (inactive) | –
14 | CCOC(=O)/C(C(=O)Nc1ccc(Cl)cc1)=C(/N)N1CCOCC1 | > 100 µM (inactive) | > 100 µM (inactive) | –
15 | Brc1ccc(/N=N/N2CCCCC2)cc1 | 98.2 µM (inactive) | 65.5 µM (inactive) | –
16 | CC(=O)Nc1ccc(C(=O)NN2C(=O)C(Cl)C2c2cc(Br)cc(Br)c2O)cc1 (configuration not stated) | – | – | GI50 (DLD-1): > 100 µM (inactive); GI50 (DMS-273): > 100 µM (inactive); GI50 (HOP-18): > 100 µM (inactive); GI50 (LXFL 529): > 100 µM (inactive); GI50 (XF498): > 100 µM (inactive)
17 | COC(=O)C1=C(C(=O)OC)SC2(S1)C(C(=O)OC)=C(C(=O)OC)Sc1c2ss/c1=N\c1ccc(Cl)cc1 | 1.91 µM (inactive) | 2.84 µM (inactive) | –
18 | Nc1nc(=O)c(/N=N/c2ccc([As](=O)(O)O)cc2)c(N)[nH]1 | > 100 µM (inactive) | > 100 µM (inactive) | –
